18 compounds from patent US8987284B2, “Phosphorus containing quinazoline compounds and methods of use” (Newgen Therapeutics, Inc., priority 2009, dated 2015) can be followed below.

Structures are written as SMILES.

One experiment has as its target T1, EGFR kinase (Homo sapiens, UniProt P00533).
T1 construct: purchased Invitrogen PV3872
Briefly: Kinase assay for EGFR (TR-FRET LanthaScreen). It is filed as biochemical. Particulars: % inhibition at 100 nM or IC50 (nM). As for the experimental part:
The extent to which the compounds of the present invention modulate EGFR kinase activity can be determined using time-resolved Fret (TR-FRET) assay (LanthaScreen® kinase activity assay, from Invitrogen). The assay employs EGFR kinase (PV3872, Invitrogen), Tb-Py20 antibody (PV3552, Invitrogen) and fluorescein-poly GT (PV3610, In vitrogen)
The assay is performed in a Black 384-well plate (available from Corning). EGFR kinase (is diluted in TR-FRET Dilution Buffer (PV3189, InVitrogen) at concentration of 0.4 ug/ml as stock solution, and then 2-fold serial diluted. Addition of 1 mM ATP initiated the reaction, and the reaction is incubated for 1 h reaction at room temperature. 10 μL of the Tb-antibody (from Invitrogen)+EDTA (from Invitrogen) solution prepared was added to each well of the assay plate and mix briefly, and incubated for 30 min. The signal is monitored by using M5 microplate reader (Ex=332 nm, Em=488 nm and 518 nm). Each compound is tested in duplicate wells. EGFR without compound is used as control. Staurosporine (available from Sigma) is used as positive control compound. Inhibition was calculated as percentage of the EGFR activity (without compound)

The next experiment has as its system BT474 cells. Briefly: Cell proliferation inhibition assay for BT474 (CCK-8). The note with it: Homo sapiens, BT-474; 72 h, 8 points. The class given is cell-based. As for the experimental part:
Human breast cancer BT474 cells was cultured in low glucose DMEM (Life Technologies 12320-032) containing 10% fetal bovine serum (FBS) at 37° C. in a humidified 10% CO2, 90% air incubator. Cells were harvested using trypsin/EDTA, counted using a haemocytometer, and plated 10000 cell/well in a 96-well clear tissue culture plate. The cells were incubated for 24 h at 37° C. to allow adherence. A serials of concentrations of each compound (ranging from 30 uM to […], 5-fold dilution) in 96-well plate, and incubated for 72 h. Each concentration was tested in triplicate wells. During the cell proliferation assay, BT474 cells were cultured in low-glucose DMEM containing 5% FBS, 50 ug/ml gentamicin, and 0.3% v/v DMSO. The culture medium was removed via aspiration, and the cell viability was detected by using CCK-8 cell proliferation kit.

T1 sequence (P00533 25-1210): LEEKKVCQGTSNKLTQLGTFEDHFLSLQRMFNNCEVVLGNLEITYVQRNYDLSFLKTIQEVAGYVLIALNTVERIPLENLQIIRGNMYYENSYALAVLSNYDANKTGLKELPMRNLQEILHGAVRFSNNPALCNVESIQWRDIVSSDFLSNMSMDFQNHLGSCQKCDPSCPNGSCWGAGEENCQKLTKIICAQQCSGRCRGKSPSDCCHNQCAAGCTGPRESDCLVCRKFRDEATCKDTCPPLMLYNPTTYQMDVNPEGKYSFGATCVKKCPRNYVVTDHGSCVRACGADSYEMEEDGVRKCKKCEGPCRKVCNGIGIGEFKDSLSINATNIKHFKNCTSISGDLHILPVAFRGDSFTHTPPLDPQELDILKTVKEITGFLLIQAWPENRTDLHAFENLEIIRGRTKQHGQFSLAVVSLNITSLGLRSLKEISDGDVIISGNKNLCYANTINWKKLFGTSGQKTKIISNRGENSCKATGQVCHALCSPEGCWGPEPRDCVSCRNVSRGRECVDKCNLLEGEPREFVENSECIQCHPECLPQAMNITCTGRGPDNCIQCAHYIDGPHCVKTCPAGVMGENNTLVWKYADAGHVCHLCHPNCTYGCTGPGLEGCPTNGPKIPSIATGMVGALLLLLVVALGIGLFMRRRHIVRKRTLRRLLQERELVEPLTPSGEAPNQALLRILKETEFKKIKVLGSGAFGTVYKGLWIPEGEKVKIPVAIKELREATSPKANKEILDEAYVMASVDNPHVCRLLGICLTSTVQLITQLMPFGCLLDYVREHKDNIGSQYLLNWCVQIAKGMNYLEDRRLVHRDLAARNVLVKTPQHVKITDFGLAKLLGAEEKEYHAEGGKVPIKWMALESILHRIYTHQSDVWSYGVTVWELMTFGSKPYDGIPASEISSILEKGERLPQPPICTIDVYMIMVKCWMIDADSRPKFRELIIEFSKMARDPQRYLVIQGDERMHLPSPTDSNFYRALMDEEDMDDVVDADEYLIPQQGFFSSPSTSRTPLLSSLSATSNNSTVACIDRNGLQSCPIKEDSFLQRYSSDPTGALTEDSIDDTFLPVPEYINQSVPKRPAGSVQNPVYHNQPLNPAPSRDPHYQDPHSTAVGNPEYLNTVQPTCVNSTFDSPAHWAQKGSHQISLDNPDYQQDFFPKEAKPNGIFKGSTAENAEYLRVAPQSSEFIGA

Consider `CP1(=O)CCN(Cc2ccc(-c3ccc4ncnc(Nc5ccc(OCc6cccc(F)c6)c(Cl)c5)c4c3)o2)CC1` [Example 1, N-(3-chloro-4-(3-fluorobenzyloxy)phenyl)-6-(5-((4-methyl-1,4-azaphosphino-1-yl)methyl)furan-2-yl)quinazolin-4-amine], for which the “EGFR inhibition inhibit % at 100 nM or IC50 (nM)” value (“EGFR inhibition inhibit %” for short) at EGFR kinase is given as “++ (>50% inhibition at 100 nM, or IC50 <100 nM for EGFR or ErbB2 kinases)”. Moreover, the IC50 in the experiment on BT474 cells was less than 100 nM.

Regarding `CP(C)(=O)CCNCc1ccc(-c2ccc3ncnc(Nc4ccc(OCc5cccc(F)c5)c(Cl)c4)c3c2)o1` [Example 2, 6-(5-((2-(dimethylphosphino)ethylaminoyl)methyl)furan-2-yl)-N-(4-(3-fluorobenzyloxy)-3-chlorophenyl)quinazolin-4-amine], the “EGFR inhibition inhibit %” value at EGFR kinase was “++ (>50% inhibition at 100 nM, or IC50 <100 nM for EGFR or ErbB2 kinases)”. In the experiment on BT474 cells, this compound gave a concentration for half-maximal inhibition (IC50) of less than 100 nM.

Take `CP(C)(=O)CNCc1ccc(-c2ccc3ncnc(Nc4ccc(OCc5cccc(F)c5)c(Cl)c4)c3c2)o1` [Example 3, 6-(5-(((dimethylphosphinoyl)methylamino)methyl)furan-2-yl)-N-(4-(3-fluorobenzyloxy)-3-chlorophenyl)quinazolin-4-amine]: the “EGFR inhibition inhibit %” value at EGFR kinase is “++ (>50% inhibition at 100 nM, or IC50 <100 nM for EGFR or ErbB2 kinases)”. The compound further gave an IC50 with BT474 cells of 100 to 1000 nM.

For `CP1(=O)CCN(CCCc2ccc3ncnc(Nc4ccc(OCc5cccc(F)c5)c(Cl)c4)c3c2)CC1` [Example 5, N-(3-chloro-4-(3-fluorobenzyloxy)phenyl)-6-(3-(4-methyl-1,4-azaphosphino-1-yl)propyl)quinazolin-4-amine], the “EGFR inhibition inhibit %” value on EGFR kinase is given as “++ (>50% inhibition at 100 nM, or IC50 <100 nM for EGFR or ErbB2 kinases)”.

Regarding `COP(=O)(CCNCc1ccc(-c2ccc3ncnc(Nc4ccc(OCc5cccc(F)c5)c(Cl)c4)c3c2)o1)OC` [Example 6, dimethyl 2-((5-(4-(3-chloro-4-(3-fluorobenzyloxy)phenylamino)quinazolin-6-yl)furan-2-yl)methylamino)ethylphosphonate], the “EGFR inhibition inhibit %” value on EGFR kinase is recorded as “++ (>50% inhibition at 100 nM, or IC50 <100 nM for EGFR or ErbB2 kinases)”.

As to `CC1(C)COP(=O)(CCNCc2ccc(-c3ccc4ncnc(Nc5ccc(OCc6cccc(F)c6)c(Cl)c5)c4c3)o2)OC1` [Example 7, N-(3-chloro-4-(3-fluorobenzyloxy)phenyl)-6-(5-((2-(5,5-dimethyl-1,3,2-dioxaphosphino-2-yl)ethylamino)methyl)furan-2-yl)quinazolin-4-amine], on EGFR kinase, the “EGFR inhibition inhibit %” value is “++ (>50% inhibition at 100 nM, or IC50 <100 nM for EGFR or ErbB2 kinases)”.

Turning to `CP1(=O)CCN(Cc2ccc(-c3ccc4ncnc(Nc5ccc(OCc6ccccn6)c(Cl)c5)c4c3)o2)CC1` [Example 8, N-(3-chloro-4-(pyridin-2-ylmethoxy)phenyl)-6-(5-((4-methyl-1,4-azaphosphino-1-yl)methyl)furan-2-yl)quinazolin-4-amine], the “EGFR inhibition inhibit %” value at EGFR kinase is “++ (>50% inhibition at 100 nM, or IC50 <100 nM for EGFR or ErbB2 kinases)”. The compound also registered an IC50 in the experiment with BT474 cells of less than 100 nM.

As to `Cc1cccc(COc2ccc(Nc3ncnc4ccc(-c5ccc(CN6CCP(C)(=O)CC6)o5)cc34)cc2Cl)n1` [Example 9, N-(3-chloro-4-((6-methylpyridin-2-yl)methoxy)phenyl)-6-(5-((4-methyl-1,4-azaphosphino-1-yl)methyl)furan-2-yl)quinazolin-4-amine], the “EGFR inhibition inhibit %” value on EGFR kinase is “+ (between 20% to 50% inhibition at 100 nM, or IC50 between 100 and 1000 nM)”. In the experiment with BT474 cells, this compound returned a half-maximal inhibitory concentration (IC50) of 100 to 1000 nM.

As to `CP(C)(=O)CCNCC#Cc1ccc2ncnc(Nc3ccc(OCc4cccc(F)c4)c(Cl)c3)c2c1` [Example 10, 6-(3-(2-(dimethylphosphinoyl)ethylamino)prop-1-ynyl)-N-(4-(3-fluorobenzyloxy)-3-chlorophenyl)quinazolin-4-amine], the “EGFR inhibition inhibit %” value at EGFR kinase is reported as “++ (>50% inhibition at 100 nM, or IC50 <100 nM for EGFR or ErbB2 kinases)”.

Take `CP1(=O)CCN(C/C=C/c2ccc3ncnc(Nc4ccc(OCc5cccc(F)c5)c(Cl)c4)c3c2)CC1` [Example 11, N-(4-(3-fluorobenzyloxy)-3-chlorophenyl)-6-((E)-3-(4-methyl-1,4-azaphosphino-1-yl)prop-1-enyl)quinazolin-4-amine]: the “EGFR inhibition inhibit %” value on EGFR kinase is “++ (>50% inhibition at 100 nM, or IC50 <100 nM for EGFR or ErbB2 kinases)”.

With `Cc1ccc(Oc2ccc(Nc3ncnc4ccc(-c5ccc(CN6CCP(C)(=O)CC6)o5)cc34)cc2C)cn1` [Example 12], at EGFR kinase, the “EGFR inhibition inhibit %” value is “++ (>50% inhibition at 100 nM, or IC50 <100 nM for EGFR or ErbB2 kinases)”.

For `CP1(=O)CCN(Cc2ccc(-c3ccc4ncnc(Nc5ccc(OCc6cccc(F)c6)c(Br)c5)c4c3)o2)CC1` [Example 14, N-(4-(3-fluorobenzyloxy)-3-bromophenyl)-6-(5-((4-methyl-1,4-azaphosphino-1-yl)methyl)furan-2-yl)quinazolin-4-amine], the “EGFR inhibition inhibit %” value at EGFR kinase is “++ (>50% inhibition at 100 nM, or IC50 <100 nM for EGFR or ErbB2 kinases)”.

As for `CP1(=O)CCN(Cc2ccc(-c3ccc4ncnc(Nc5ccc6c(cnn6Cc6cccc(F)c6)c5)c4c3)o2)CC1` [Example 16, N-(1-(3-fluorobenzyl)-1H-indazol-5-yl)-6-(5-((4-methyl-1,4-azaphosphino-1-yl)methyl)furan-2-yl)quinazolin-4-amine], the “EGFR inhibition inhibit %” value at EGFR kinase is on record as “++ (>50% inhibition at 100 nM, or IC50 <100 nM for EGFR or ErbB2 kinases)”.

Take `C[C@@H](Nc1ncnc2ccc(-c3ccc(CN4CCP(C)(=O)CC4)o3)cc12)c1ccccc1` [Example 18, (R)-6-(5-((4-methyl-1,4-azaphosphino-1-yl)methyl)furan-2-yl)-N-(1-phenylethyl)quinazolin-4-amine]: on EGFR kinase, the “EGFR inhibition inhibit %” value was “++ (>50% inhibition at 100 nM, or IC50 <100 nM for EGFR or ErbB2 kinases)”.

As for `CP1(=O)CCN(Cc2ccc(-c3ccc4ncnc(Nc5cccc(Cl)c5F)c4c3)o2)CC1` [Example 19, N-(3-chloro-2-fluorophenyl)-6-(5-((4-methyl-1,4-azaphosphino-1-yl)methyl)furan-2-yl)quinazolin-4-amine], the “EGFR inhibition inhibit %” value on EGFR kinase is “++ (>50% inhibition at 100 nM, or IC50 <100 nM for EGFR or ErbB2 kinases)”.

As for `CP1(=O)CCN(Cc2ccc(-c3ccc4ncnc(Nc5ccc(Br)cc5F)c4c3)o2)CC1` [Example 20, N-(4-Bromo-2-fluorophenyl)-6-(5-((4-methyl-1,4-azaphosphino-1-yl)methyl)furan-2-yl)quinazolin-4-amine], at EGFR kinase, the “EGFR inhibition inhibit %” value was “+ (between 20% to 50% inhibition at 100 nM, or IC50 between 100 and 1000 nM)”.

Consider `CP1(=O)CCN(Cc2ccc(-c3ccc4ncnc(Nc5ccc(Br)c(Cl)c5F)c4c3)o2)CC1` [Example 21, N-(4-Bromo-3-chloro-2-fluorophenyl)-6-(5-((4-methyl-1,4-azaphosphino-1-yl)methyl)furan-2-yl)quinazolin-4-amine], for which, at EGFR kinase, the “EGFR inhibition inhibit %” value is “++ (>50% inhibition at 100 nM, or IC50 <100 nM for EGFR or ErbB2 kinases)”.

Regarding `CP1(=O)CCN(Cc2ccc(-c3ccc4ncnc(Nc5ccc(OCc6cnccn6)c(Cl)c5)c4c3)o2)CC1` [Example 22, N-(3-chloro-4-(pyrazin-2-ylmethoxy)phenyl)-6-(5-((4-methyl-1,4-azaphosphino-1-yl)methyl)furan-2-yl)quinazolin-4-amine], on EGFR kinase, the “EGFR inhibition inhibit %” value is listed as “++ (>50% inhibition at 100 nM, or IC50 <100 nM for EGFR or ErbB2 kinases)”.

As a reminder, the IC50 is the point on the concentration scale where inhibition reaches its midpoint.
